Data published in patent US5834284A, “N-acetylglucosaminyl transferase gene coding therefor and process for production thereof” (Suntory Limited, priority 1992, dated 1998).

Tests used:
GnT-V expression product = target: T1, GnT-V expression product (Homo sapiens, UniProt Q09328); experiment: Enzyme activity of cloned GnT-V cDNA expressed in COS-1 cells; type: biochemical; conditions: supernatant of disrupted COS-1 cells
T1 sequence (Q09328 1-741): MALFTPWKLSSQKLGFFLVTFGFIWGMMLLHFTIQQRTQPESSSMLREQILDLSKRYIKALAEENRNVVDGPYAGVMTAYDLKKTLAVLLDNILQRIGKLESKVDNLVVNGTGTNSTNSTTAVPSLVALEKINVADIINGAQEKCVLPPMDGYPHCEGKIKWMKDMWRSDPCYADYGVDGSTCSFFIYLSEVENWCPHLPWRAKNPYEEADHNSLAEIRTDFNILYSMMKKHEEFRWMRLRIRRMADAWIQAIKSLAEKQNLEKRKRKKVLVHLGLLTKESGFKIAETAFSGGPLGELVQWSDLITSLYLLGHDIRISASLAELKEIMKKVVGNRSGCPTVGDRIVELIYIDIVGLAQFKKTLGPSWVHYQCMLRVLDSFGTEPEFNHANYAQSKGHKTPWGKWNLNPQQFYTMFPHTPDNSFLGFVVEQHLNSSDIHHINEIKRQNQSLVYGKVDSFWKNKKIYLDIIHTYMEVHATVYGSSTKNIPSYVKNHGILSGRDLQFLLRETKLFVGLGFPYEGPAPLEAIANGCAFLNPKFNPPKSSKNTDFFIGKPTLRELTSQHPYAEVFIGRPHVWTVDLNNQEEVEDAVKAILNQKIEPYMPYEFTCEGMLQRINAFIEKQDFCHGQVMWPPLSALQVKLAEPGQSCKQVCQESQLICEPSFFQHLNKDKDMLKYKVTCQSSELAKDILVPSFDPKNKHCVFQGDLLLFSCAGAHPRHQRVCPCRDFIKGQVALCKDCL
Experimental: The expression vector constructed in Example 8 was used to express the GnT-V cDNA fragment in animal cells and GnT-V activity of the expressed protein was tested.
Expression vector containing GnT-V cDNA fragment was transfected to COS-1 cells, animal cells for expression, by electroporation. Namely, about 5×10^6 CO.S-1 cells previously prepared were suspended in HEPES buffer (50 mM Hepes, 137 mM NaCl, 5 mM KCl, 0.7 mM NaHPO3, 6 mM dextrose, pH 7.05), 60 μg of the above-mentioned plasmid was added thereon, and 800 μl of the suspension was subjected to electroporation in an electroporator (Bio-Rad) at 250V, […]. Next, all the suspensions of COS-1 cells electroporated with GnT-V gene was plated in a petri dish having the diameter of 6 cm, and cultured at 37° C. in 5% CO2 for 48 hours. The cultured ceils were collected with a rubber-coated police man bar, and suspended in 50 μl of PBS buffer, and the cells were disrupted with a sonicator. Next, the disruptant was centrifuged to collect a supernatant, and 15 μl of the supernatant was used to assay enzyme activity.

[1] = target: T2, GnT-V (β1,6-N-acetylglucosaminyl transferase) (Homo sapiens, UniProt Q09328); experiment: GnT-V enzyme activity assay with fluorescence-labeled sugar acceptors, product separated by HPLC; type: biochemical
T2 construct: 73/60 kDa
T2 sequence (Q09328 31-741): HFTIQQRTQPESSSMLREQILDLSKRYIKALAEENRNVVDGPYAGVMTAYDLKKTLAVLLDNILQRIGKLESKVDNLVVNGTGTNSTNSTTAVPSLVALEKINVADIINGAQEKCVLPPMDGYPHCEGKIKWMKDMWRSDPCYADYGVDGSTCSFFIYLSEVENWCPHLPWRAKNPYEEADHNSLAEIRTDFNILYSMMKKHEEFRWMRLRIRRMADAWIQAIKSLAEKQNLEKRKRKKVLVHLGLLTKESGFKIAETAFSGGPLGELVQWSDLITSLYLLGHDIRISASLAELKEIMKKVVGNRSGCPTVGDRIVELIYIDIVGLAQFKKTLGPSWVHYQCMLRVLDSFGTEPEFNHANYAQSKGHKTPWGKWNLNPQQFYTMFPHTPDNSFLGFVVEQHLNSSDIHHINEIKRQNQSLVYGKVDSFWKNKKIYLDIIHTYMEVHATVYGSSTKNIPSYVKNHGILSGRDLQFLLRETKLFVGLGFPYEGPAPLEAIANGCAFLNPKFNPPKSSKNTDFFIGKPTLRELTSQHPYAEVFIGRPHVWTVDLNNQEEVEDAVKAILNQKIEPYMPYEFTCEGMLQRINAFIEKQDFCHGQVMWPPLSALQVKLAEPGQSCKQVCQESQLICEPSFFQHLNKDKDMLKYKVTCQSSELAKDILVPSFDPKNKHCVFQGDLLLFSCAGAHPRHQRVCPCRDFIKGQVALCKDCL
Excerpt: An enzyme activity can be easily assayed by labeling an acceptor with a radioisotope or with fluorescent substance, adding the enzyme and separating the reaction product by high performance liquid chromatography (HPLC). More specifically, the method reported by Tanigichi et al. (Taniguchi, N., Nishikawa, A., Fujii, S., and Gu. J., Methods Enzymol. 179, 397-408 (1989); Nishikawa, H., Gu, J., Fujii, S., and Tanigichi, N., Biochem. Biophys. Acta, 1035, 313-318 (1990)) may be followed.
Namely, the enzyme activity of GnT-V can be assayed using GnGn-2-aminopyridine (GnGn-bi-PA) as an acceptor, and UDP-GluNAc (Sigma) as a donor. Activity is shown by an amount of transferred N-acetylglucosamine/hour/mg protein. Note, an amount of protein can be measured according to a reported method (Redinbaugh, M. G., and Turley, R. B., Anal. Biochem. 153, 267-271 (1986)) using a BCA kit (Pierce Chemical Company, Rockford, Ill.) and using bovine serum albumin as a standard.
Substrate specificity was determined using the following compound as sugar acceptors according to the above-mentioned enzyme activity measuring method. [drawing 1]
GnGnF--, GnGF--, GGnF--, Gn(Gn)GnF--, Gn(Gn)Gn--, GG--, GnGn--, MM-- and GnM-- were isolated from the bovine IgG treated with anhydrous hydrazine and then labeled with a fluorescence label according to Hase et al. method (Hase, S., Ibuki, T., and Ikehara, T., J. Biochem. 95, 197-203 (1984). The purified GnT-V was diluted with PBS buffer to a final concentration of 0.1 mg protein/ml, and then reacted with each fluorescence-labeled sugar acceptor. A result is shown in Table 2.

Q: Which “conversion of substrate by expression product GnT-V (HPLC elution profile, FIG. 10)” value (GnT-V expression product) does the source give for `CC(=O)N[C@H]1[C@H](O[C@@H]([C@H](O)[C@H](CNc2ccccn2)NC(C)=O)[C@H](O)CO)O[C@H](CO)[C@@H](O[C@@H]2O[C@H](CO[C@H]3O[C@H](CO)[C@@H](O)[C@H](O)[C@@H]3O[C@@H]3O[C@H](CO)[C@@H](O)[C@H](O)[C@H]3NC(C)=O)[C@@H](O)[C@H](O[C@H]3O[C@H](CO)[C@@H](O)[C@H](O)[C@@H]3O[C@@H]3O[C@H](CO)[C@@H](O)[C@H](O)[C@H]3NC(C)=O)[C@@H]2O)[C@@H]1O` [GnGn-bi-PA, GlcNAcβ1-2Manα1-3-(GlcNAcβ1-2Manα1-6)Manβ1-4GlcNAcβ1-4GlcNAc-2-aminopyridine] here?
A: converts a substrate GnGn-bi-PA to a product GnGnGn-tri'-PA

Q: And the Relative reaction rate ([1]; acceptor 70 μM, purified GnT-V 0.1 mg protein/ml, GnGn-bi-PA = 100)?
A: 100

Q: And the “reactivity relative to GnGn-bi-PA acceptor taken as 100%” value ([1]; substrate specificity)?
A: 100%
